Experimental data taken from patent US4315005A, “Cephalosporin antibiotics” (Glaxo Group Limited, priority 1979, dated 1982).

Assays:
gram-negative bacteria = assay: experimental infections in mice with gram-negative bacteria; type: in vivo
[1] = effect of human serum on antibacterial properties; type: cell-based
[2] = administration of 500 mg/kg to mice (lethality); type: in vivo; settings: for deaths: 500 mg/kg; for LD50: mouse, in vivo
[3] = system: strains of Pseudomonas aeruginosa; assay: protection of mice against strains of Pseudomonas aeruginosa; type: in vivo; settings: for protection compared with treatment with an aminoglycoside such as amikacin: vs amikacin
[4] = system: strains of Pseudomonas organisms, e.g. strains of Pseudomonas aeruginosa; assay: antibacterial activity against Pseudomonas strains; type: cell-based
[5] = system: strains of Staphylococcus aureus; assay: antibacterial activity against Staphylococcus aureus; type: cell-based
[6] = distribution in the bodies of small rodents; type: in vivo
[7] = serum half-life in primates; type: in vivo; settings: extrapolated to man
[8] = effect of increased inocula; type: cell-based
[9] = system: wide range of commonly encountered pathogenic organisms; assay: broad spectrum antibiotic activity; type: cell-based

## CC(C)(O/N=C(\C(=O)N[C@@H]1C(=O)N2C(C(=O)[O-])=C(CSc3cc[n+](CC(N)=O)cc3)CS[C@H]12)c1csc(N)n1)C(=O)O [(6R,7R)-7-[(Z)-2-(2-Aminothiazol-4-yl)-2-(2-carboxyprop-2-oxyimino)acetamido] -3-[(1-carbamoylmethylpyridinium-4-yl)thiomethyl]ceph-3-em-4-carboxylate]
gram-negative bacteria
  treatment of experimental infections with gram-negative bacteria: successfully treated
[1]
  antibacterial properties in human serum: generally are not impaired by human serum
[2]
  deaths: did not cause any deaths
  LD50: > 500 mg/kg
[3]
  protection against strains of Pseudomonas aeruginosa: good protection
  protection compared with treatment with an aminoglycoside such as amikacin: comparable with the treatment with an aminoglycoside such as amikacin
[4]
  activity against strains of Pseudomonas: excellent activity
[5]
  activity against strains of Staphylococcus aureus: useful activity
[6]
  distribution in the body: well distributed
  therapeutic levels after subcutaneous injection: useful therapeutic levels
[7]
  probable half-life in man from serum half-life in primates: comparatively long half-life in man
[8]
  effect of increased inocula against the compounds: low
[9]
  general antibiotic properties: to an outstanding extent

## NC(=O)C[n+]1ccc(SCC2=C(C(=O)[O-])N3C(=O)[C@@H](NC(=O)/C(=N\OC4(C(=O)O)CCC4)c4csc(N)n4)[C@H]3SC2)cc1 [(6R,7R)-7-[(Z)-2-(2-Aminothiazol-4-yl)-2-(1-carboxycyclobut-1-oxyimino)acetamido]-3-[(1-carbamoylmethylpyridinium-4-yl)thiomethyl]ceph-3-em-4-carboxylate]
gram-negative bacteria
  treatment of experimental infections with gram-negative bacteria: successfully treated
[1]
  antibacterial properties in human serum: generally are not impaired by human serum
[2]
  deaths: did not cause any deaths
  LD50: > 500 mg/kg
[3]
  protection against strains of Pseudomonas aeruginosa: good protection
  protection compared with treatment with an aminoglycoside such as amikacin: comparable with the treatment with an aminoglycoside such as amikacin
[4]
  activity against strains of Pseudomonas: excellent activity
[5]
  activity against strains of Staphylococcus aureus: useful activity
[6]
  distribution in the body: well distributed
  therapeutic levels after subcutaneous injection: useful therapeutic levels
[7]
  probable half-life in man from serum half-life in primates: comparatively long half-life in man
[8]
  effect of increased inocula against the compounds: low
[9]
  general antibiotic properties: to an outstanding extent
